Measurements published in ChEMBL document CHEMBL3603765, “Targeting Drug Resistance in EGFR with Covalent Inhibitors: A Structure-Based Design Approach” (J Med Chem, 2015).
Values after ≈ are worked out from the molar mass of the structure shown. Active and inactive are the calls of the source. The calls are words filed in the database; no cut-off is given here.

Legend:
[1] = biological target: Epidermal growth factor receptor (Homo sapiens, UniProt P00533); assay: Inhibition of wild type EGFR (unknown origin) expressed in Sf9 cells pre-incubated for 30 mins before substrate and ATP addition by homogeneous time-resolved FRET assay
[2] = biological target: T1, Epidermal growth factor receptor (Homo sapiens, UniProt P00533, L858R)
[3] = biological target: T2, Epidermal growth factor receptor (Homo sapiens, UniProt P00533, L858R/T790M)
[4] = biological target: Proto-oncogene tyrosine-protein kinase Src (Homo sapiens, UniProt P12931); assay: Inhibition of wild type cSrc (251 to 533 residues) (unknown origin) pre-incubated for 30 mins before substrate and ATP addition by HTRF assay
[5] = biological target: Proto-oncogene tyrosine-protein kinase Src (Homo sapiens, UniProt P12931, T341M); assay: Inhibition of cSrc T338M mutant (unknown origin) pre-incubated for 30 mins before substrate and ATP addition by HTRF assay
[6] = biological target: Proto-oncogene tyrosine-protein kinase Src (Homo sapiens, UniProt P12931, S348C/T341M); assay: Inhibition of cSrc T338M/S345C mutant (unknown origin) pre-incubated for 30 mins before substrate and ATP addition by HTRF assay
A-431 = assay: Growth inhibition of human A431 cells incubated for 96 hrs by cell-titer Glo reagent based assay; assay type: functional; details: A-431, 96 h
[7] = Growth inhibition of human PC9 cells with del1 deletion incubated for 96 hrs by cell-titer Glo reagent based assay; assay type: functional; details: PC-9, 96 h
NCI-H1975 [8] = assay: Growth inhibition of human NCI-H1975 cells expressing EGFR L858R/T790M mutant incubated for 96 hrs by cell-titer Glo reagent based assay; assay type: functional; details: NCI-H1975, 96 h
[9] = Growth inhibition of human HCC827 cells with exon 19 deletion and delE746-A750 incubated for 96 hrs by cell-titer Glo reagent based assay; assay type: functional; details: HCC827, 96 h
NCI-H661 = assay: Growth inhibition of human NCI-H661 cells incubated for 96 hrs by cell-titer Glo reagent based assay; assay type: functional; details: NCI-H661, 96 h
[10] = tested on: Epidermal growth factor receptor (Homo sapiens), P00533 [T790M]; assay: Binding affinity to EGFR T790M mutant (unknown origin) expressed in Sf9 cells by ESI-MS method
[11] = tested on: Epidermal growth factor receptor (Homo sapiens), P00533 [T790M]; assay: Binding affinity to EGFR T790M mutant (unknown origin) expressed in Sf9 cells assessed as covalent modification at Cys797 residue nano-LC-MS/MS method
[12] = biological target: T1, Epidermal growth factor receptor; assay: Inhibition of EGFR L858R mutant (unknown origin) expressed in Sf9 cells by enzyme kinetics assay
[13] = biological target: T2, Epidermal growth factor receptor; assay: Inhibition of EGFR L858R/T790M mutant (unknown origin) expressed in Sf9 cells by enzyme kinetics assay
[14] = tested on: Epidermal growth factor receptor (Homo sapiens), P00533 [L858R]; assay: Inhibition of EGFR L858R mutant (unknown origin) expressed in Sf9 cells assessed as enzyme inactivation constant by enzyme kinetics assay
[15] = tested on: Epidermal growth factor receptor (Homo sapiens), P00533 [L858R,T790M]; assay: Inhibition of EGFR L858R/T790M mutant (unknown origin) expressed in Sf9 cells assessed as enzyme inactivation constant by enzyme kinetics assay
[16] = Kinetic solubility in 50 mM Hepes buffer at pH 7.4; assay type: physicochemical; details: read-out: Kinetic_solubility
[17] = Permeability of the compound after 16 hrs assessed as compound flux by PAMPA method; assay type: physicochemical
[18] = Efflux ratio in human Caco2 cells incubated for 2 hrs; assay type: ADME, cell-based; details: Caco-2
Homo sapiens = species on record: Homo sapiens; assay: Selectivity index, ratio of IC50 for cSrc T338M mutant (unknown origin) to IC50 for cSrc T338M/S345C mutant (unknown origin)
NCI-H1975 [19] = assay: Growth inhibition of human NCI-H1975 cells expressing EGFR L858R/T790M mutant at 30 um incubated for 96 hrs by cell-titer Glo reagent based assay; assay type: functional

| SMILES | IC50 [1] [nM] | IC50 [2] [nM] | IC50 [3] [nM] | GI50 [9] [nM] | further results |
| --- | --- | --- | --- | --- | --- |
| C=CC(=O)Nc1ccc(Oc2nc(Nc3cc(C)[nH]n3)cc(N3CCN(C)CC3)n2)cc1 | 3100 | 1800 | 2400 | – | – |
| CCC(=O)Nc1ccc(Oc2nc(Nc3cc(C)[nH]n3)cc(N3CCN(C)CC3)n2)cc1 | > 10000 | 1900 | 700 | – | – |
| CCC(=O)Nc1cccc(Oc2nc(Nc3cc[nH]n3)cc(N3CCN(C)CC3)n2)c1 | > 10000 | > 10000 | > 10000 | – | – |
| C=CC(=O)Nc1ccc2c(Nc3cc[nH]n3)nc(-c3ccccc3)nc2c1 | > 10000 | 1900 | 2200 | – | IC50 [4]: 211 nM; IC50 [5]: 65 nM; IC50 [6]: 43 nM; GI50 (A-431): 700 nM; GI50 [7]: 1900 nM; GI50 (NCI-H1975 [8]): 1600 nM |
| Cc1cc(Nc2cc(N3CCN(C)CC3)nc(Oc3cccc([N+](=O)[O-])c3)n2)n[nH]1 | 3900 | 2300 | 600 | 8900 | GI50 (A-431): 3500 nM; GI50 (NCI-H1975 [8]): 6500 nM |
| C=CC(=O)Nc1cccc(Oc2nc(Nc3n[nH]c4ccc(Br)cc34)cc(N3CCN(C)CC3)n2)c1 | 2900 | 400 | 300 | 8600 | GI50 (NCI-H661): 11000 nM; GI50 (NCI-H1975 [8]): 18000 nM |
| C=CC(=O)Nc1cccc(-c2nc(Nc3cc[nH]n3)c3ccccc3n2)c1 | 1100 | 500 | 100 | – | – |
| C=CC(=O)Nc1cccc(Nc2nc(Nc3ccc(N4CCN(C(C)=O)CC4)cc3OC)ncc2C(F)(F)F)c1 [ROCILETINIB] | – | – | – | 30 | GI50 (NCI-H661): 1700 nM; GI50 (NCI-H1975 [8]): 30 nM |
| C=CC(=O)Nc1ccccc1-c1nc(Nc2cc[nH]n2)c2ccccc2n1 | > 10000 | 2700 | 1100 | – | – |
| C=CC(=O)Nc1ccccc1Oc1nc(Nc2cc(C)[nH]n2)cc(N2CCN(C)CC2)n1 | 900 | 600 | 2100 | – | – |
| Cc1cc(Nc2cc(N3CCN(C)CC3)nc(Oc3ccc(N)cc3)n2)n[nH]1 | > 10000 | 2100 | 1400 | – | – |
| CCC(=O)Nc1ccc2c(Nc3cc[nH]n3)nc(-c3ccccc3)nc2c1 | > 10000 | 2100 | 2200 | – | IC50 [4]: 336 nM; IC50 [5]: 60 nM; IC50 [6]: 48 nM |
| CCC(=O)Nc1cccc(Oc2nc(Nc3n[nH]c4ccccc34)cc(N3CCN(C)CC3)n2)c1 | > 10000 | > 10000 | 8600 | > 30000 | IC50 [6]: 260 nM; GI50 (NCI-H661): 22000 nM; GI50 (NCI-H1975 [8]): 30000 nM |
| CCC(=O)Nc1cc(Nc2cc[nH]n2)nc(-c2ccccc2)n1 | > 10000 | 3400 | > 10000 | – | – |
| C=CC(=O)Nc1cccc(Oc2nc(Nc3cc[nH]n3)cc(N3CCN(C)CC3)n2)c1 | > 10000 | 2000 | 1900 | – | – |
| CCC(=O)Nc1ccccc1-c1nc(Nc2cc[nH]n2)c2ccccc2n1 | > 10000 | > 10000 | > 10000 | – | – |
| C=CC(=O)Nc1cccc(Oc2nc(Nc3n[nH]c4ccccc34)cc(N3CCN(C)CC3)n2)c1 | 1700 | 500 | 70 | 2500 | Activity [10]: Active; Activity [11]: Active; IC50 [6]: 17 nM; Ki [12]: 833 nM; Ki [13]: 0.32 nM; Kinact [14]: 0.055 min⁻¹; Kinact [15]: 0.137 min⁻¹; GI50 (NCI-H661): 8600 nM; GI50 (NCI-H1975 [8]): 9800 nM; solubility kinetic [16]: 277 µM (≈ 130 µg/mL); permeability [17]: 47%; efflux ratio at 2 h [18]: 35 |

| SMILES | IC50 [1] [nM] | IC50 [2] [nM] | IC50 [3] [nM] | GI50 [9] [nM] | further results |
| --- | --- | --- | --- | --- | --- |
| Cc1cc(Nc2cc(N3CCN(C)CC3)nc(Oc3cccc(N)c3)n2)n[nH]1 | > 10000 | > 10000 | 4900 | > 30000 | GI50 (A-431): 20000 nM; GI50 (NCI-H1975 [8]): > 30000 nM |
| C=CC(=O)Nc1cccc(Oc2nc(Nc3cc(C)[nH]n3)cc(N3CCN(C)CC3)n2)c1 | > 10000 | 30 | 500 | 8200 | Activity [10]: Active; Activity [11]: Active; IC50 [5]: 170 nM; IC50 [6]: 28 nM; Ratio IC50 (Homo sapiens): 5; Ki [12]: 70.2 nM; Ki [13]: 0.64 nM; Kinact [14]: 0.017 min⁻¹; Kinact [15]: 0.116 min⁻¹; GI50 (A-431): 5700 nM; GI50 (NCI-H1975 [8]): 20000 nM; solubility kinetic [16]: 432 µM (≈ 188 µg/mL); permeability [17]: 7%; efflux ratio at 2 h [18]: 32 |
| C=CC(=O)Nc1ccc(-c2nc(Nc3cc[nH]n3)c3ccccc3n2)cc1 | > 10000 | > 10000 | > 10000 | – | – |
| C=CC(=O)Nc1cccc(-c2nc(Nc3n[nH]c4ccccc34)cc(N3CCN(C)CC3)n2)c1 | > 10000 | 5000 | 4900 | 16000 | GI50 (NCI-H661): 12000 nM; GI50 (NCI-H1975 [8]): 11000 nM |
| CN(C)C/C=C/C(=O)Nc1cccc(Oc2nc(Nc3n[nH]c4ccccc34)cc(N3CCN(C)CC3)n2)c1 | 6700 | 3600 | 700 | > 30000 | GI50 (NCI-H661): > 30000 nM; growth inhibition (GI) (NCI-H1975 [19]): inactive |
| C=CC(=O)Nc1cc(Nc2cc[nH]n2)nc(-c2ccccc2)n1 | 900 | 800 | 300 | – | Activity [10]: Active |
| C=CC(=O)Nc1cccc(Oc2nccc(Nc3cc(C)[nH]n3)n2)c1 | > 10000 | 1800 | 900 | – | – |
| CCC(=O)Nc1cccc(-c2nc(Nc3cc[nH]n3)c3ccccc3n2)c1 | 3700 | 1900 | 400 | – | – |
| Cc1cc(Nc2cc(N3CCN(C)CC3)nc(Oc3ccc(NC(=O)/C=C/C(F)(F)F)cc3)n2)n[nH]1 | 2000 | 2100 | 1500 | – | – |
| CCC(=O)Nc1ccccc1Oc1nc(Nc2cc(C)[nH]n2)cc(N2CCN(C)CC2)n1 | > 10000 | > 10000 | > 10000 | – | – |
| C=CC(=O)Nc1cccc(Oc2nc(Nc3n[nH]c4ccccc34)cc(N3CCN(C(C)=O)CC3)n2)c1 | 3600 | 600 | 200 | 25000 | GI50 (NCI-H661): > 30000 nM; growth inhibition (GI) (NCI-H1975 [19]): inactive |
| Cc1cc(Nc2cc(N3CCN(C)CC3)nc(Oc3ccccc3[N+](=O)[O-])n2)n[nH]1 | > 10000 | 1900 | 1600 | – | – |
| CCC(=O)Nc1cccc(Oc2nc(Nc3cc(C)[nH]n3)cc(N3CCN(C)CC3)n2)c1 | > 10000 | 1900 | > 10000 | > 30000 | IC50 [5]: 254 nM; IC50 [6]: 349 nM; GI50 (A-431): 8400 nM; GI50 (NCI-H1975 [8]): > 30000 nM |
| Cc1cc(Nc2cc(N3CCN(C)CC3)nc(Oc3ccc([N+](=O)[O-])cc3)n2)n[nH]1 | > 10000 | 1800 | 900 | – | – |
| CCC(=O)Nc1cccc(Oc2nccc(Nc3cc(C)[nH]n3)n2)c1 | > 10000 | > 10000 | > 10000 | – | – |
| C=CC(=O)Nc1cccc(-c2nccc(Nc3cc(C)[nH]n3)n2)c1 | > 10000 | 2800 | 2500 | – | – |
| CCC(=O)Nc1ccc(-c2nc(Nc3cc[nH]n3)c3ccccc3n2)cc1 | > 10000 | > 10000 | > 10000 | – | – |
